According to patent US3965109A, “Certain aryl amino pyridines” (priority 1971, dated 1976):

Tests used:
[1] = tested on: Puccinia recondita (wheat); test: Fungicidal test against foliar disease A (foliage spray plus soil drench); format: in vivo; details: 10 days
[2] = tested on: Phytophthora infestans (tomato); format: in vivo; details: 3 days
[3] = tested on: Plasmopara viticola (vine); test: Fungicidal test against foliar disease C (foliage spray plus soil drench); format: in vivo; details: 10 days
[4] = tested on: Uncinula necator (vine); test: Fungicidal test against foliar disease D (foliage spray plus soil drench); format: in vivo; details: 10 days
[5] = tested on: Piricularia oryzae (rice); format: in vivo; details: 7 days; for Amount of disease grading, disease E (Table 4): 100 ppm spray and drench
[6] = tested on: Agrobacterium tumifaciens; test: Antibacterial agar test (B1); format: cell-based; details: 50 ppm; 5 days
[7] = tested on: Corynebacterium michiganense; test: Antibacterial agar test (B2); format: cell-based; details: 50 ppm; 5 days
Description: (§1) This Example illustrates the activity of compounds used as the active ingredients of compositions according to the invention against a variety of plant bacterial diseases and fungal post-harvest saprophytic diseases. In a test for such activity, 5 milligrams of the compound to be tested was dissolved or suspended in 10 ml. of acetone and enough of this solution or suspension was added to 18 ml. of nutrient agar (for the bacterial diseases) or 16 ml. of 2% malt agar (for the fungal diseases) to give a final concentration of 50 parts per million of the compound under test. A streptomycin preparation (2 ml. containing 100 units per ml.) was added to the malt agar to prevent bacterial contamination of the fungal tests.
(§2) The agar preparations were dried overnight in Petri dishes and inoculated the following morning with the bacterial or fungal diseases using a multipoint inoculator. The antibacterial activity was assessed after 5 days and the antifungal activity after 6 days. The results of the tests are set out in Table 16 (anti bacterial activity) and Table 17 (antifungal activity). The results are graded as in Example 1 above.

[8] = tested on: Xanthomonas malvacearum; test: Antibacterial agar test (B3); format: cell-based; details: 50 ppm; 5 days
Description: as §1, §2

[9] = tested on: Erwinia carotovora; test: Antibacterial agar test (B4); format: cell-based; details: 50 ppm; 5 days
[10] = tested on: Xanthomonas oryzae; format: cell-based; details: 50 ppm; 5 days
[11] = tested on: Pseudomonas syringae; test: Antibacterial agar test (B6); format: cell-based; details: 50 ppm; 5 days
[12] = tested on: Streptomyces scabies; test: Antibacterial agar test (B7); format: cell-based; details: 50 ppm; 5 days
[13] = tested on: Tetranychus telarius (red spider mites, adults); test: Pest toxicity test; format: in vivo; details: 0.1% by weight; French bean; 3 days
[14] = tested on: Tetranychus telarius (red spider mites, eggs); test: Pest toxicity test; format: in vivo; details: 0.1% by weight; French bean; 3 days
[15] = tested on: Aphis fabae; test: Pest toxicity test; format: in vivo; details: 0.1% by weight; broad bean; 2 days
[16] = tested on: Megoura viceae; test: Pest toxicity test; format: in vivo; details: 0.1% by weight; broad bean; 2 days
[17] = tested on: Aedes aegypti (mosquito larvae); test: Pest toxicity test; format: in vivo; details: 0.01% by weight; water; 1 day
[18] = tested on: Aedes aegypti (mosquito adults); test: Pest toxicity test; format: in vivo; details: 0.01% by weight; plywood; 1 day
[19] = tested on: Musca domestica (houseflies); test: Pest toxicity test, contact test; format: in vivo; details: 0.1% by weight; milk/sugar; 2 days; flies sprayed directly
[20] = tested on: Pieris brassicae (cabbage white caterpillars); test: Pest toxicity test; format: in vivo; details: 0.1% by weight, 2 days
[21] = tested on: Plutella maculipennis (diamond back moth larvae); test: Pest toxicity test; format: in vivo; details: in vivo
[22] = tested on: Phaedon cochleariae (mustard beetles); test: Pest toxicity test; format: in vivo; details: in vivo
[23] = tested on: Agriolimax reticulatus (slugs); test: Molluscicidal activity test; format: in vivo, Agriolimax reticulatus (Mull); details: pellet with 4% by weight; 6 days; 10°C
In short: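 Compound was applied to a calf feeding pellet at 4% by weight active ingredient after 24 h air drying. Two replicates, each of 2 slugs starved 24 h, were kept with a moist filter paper at 10°C, and kill was assessed after 6 days.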

[24] = tested on: Lettuce; test: Herbicidal test, pre- and post-emergence; format: in vivo; details: 10 kg/ha; scale 0 to 3 (complete kill)
[25] = tested on: Tomato; test: Herbicidal test, pre- and post-emergence; format: in vivo; details: 10 kg/ha; scale 0 to 3 (complete kill)
[26] = tested on: Wheat; test: Herbicidal test, pre- and post-emergence; format: in vivo; details: 10 kg/ha; scale 0 to 3 (complete kill)
[27] = tested on: Maize; test: Herbicidal test, pre- and post-emergence; format: in vivo; details: 10 kg/ha; scale 0 to 3 (complete kill)
[28] = 50 ppm spray + 200 ppm soil drench

Compound	Antibacterial activity grading B1 [6]	Antibacterial activity grading B2 [7]	Antibacterial activity grading B3 [8]	Antibacterial activity grading B4 [9]	Antibacterial activity grading B5 [10]	Antibacterial activity grading B6 [11]	Antibacterial activity grading B7 [12]	Mortality grading (kill) [13]	Mortality grading (kill) [14]	Mortality grading (kill) [15]	Mortality grading (kill) [16]	Mortality grading (kill) [17]	Mortality grading (kill) [18]	Mortality grading (kill), contact test [19]	Mortality grading (kill) [20]	Mortality grading (kill) [21]	Mortality grading (kill) [22]	Amount of disease grading, disease A (Table 4) ([1]; 100 ppm spray and drench)	Amount of disease grading, disease C (Table 4) ([3]; 100 ppm spray and drench)	Amount of disease grading, disease D (Table 4) ([4]; 100 ppm spray and drench)	further results
O=[N+]([O-])c1cc([N+](=O)[O-])c(Nc2c(Cl)c(F)nc(F)c2Cl)cc1F [Compound 6, 3,5-Dichloro-2,6-difluoro-4(2,4-dinitro-5-fluoroanilino)pyridine]	3 (0 to 5)	3 (0 to 5)	3 (0 to 5)	1 (26 to 60)	2 (6 to 25)	2 (6 to 25)	1 (26 to 60)														Amount of disease grading, disease A [1, 28]: 0 (61 to 100); Amount of disease grading, disease B [2, 28]: 3 (0 to 5); Amount of disease grading, disease C [3, 28]: 3 (0 to 5); Amount of disease grading, disease D [4, 28]: 2 (6 to 25); Amount of disease grading, disease E [5, 28]: 3 (0 to 5)
O=[N+]([O-])c1ccc(Nc2c(F)c(F)nc(F)c2F)c([N+](=O)[O-])c1 [Compound 15, 4(2,4-Dinitroanilino)-tetrafluoropyridine]	3 (0 to 5)	3 (0 to 5)	3 (0 to 5)	3 (0 to 5)	3 (0 to 5)	3 (0 to 5)	3 (0 to 5)	3 (3 represents over 90% kill)	2 (2 represents 60 - 90% kill)	0 (O represents less than 30% kill)	0 (O represents less than 30% kill)	0 (O represents less than 30% kill)	0 (O represents less than 30% kill)	2 (2 represents 60 - 90% kill)	3 (3 represents over 90% kill)	0 (key: O represents less than 30% kill; 1 represents 30 - 49% kill; 2 represents 60 - 90% kill; 3 represents over 90% kill; C indicates a chemosterilant effect.; A indicates an antifeeding effect.)	2 (key: O represents less than 30% kill; 1 represents 30 - 49% kill; 2 represents 60 - 90% kill; 3 represents over 90% kill; C indicates a chemosterilant effect.; A indicates an antifeeding effect.)				Amount of disease grading, disease A ([1]; 100 ppm spray and drench): 2 (6 to 25); Amount of disease grading, disease C ([3]; 100 ppm spray and drench): 3 (0 to 5); Amount of disease grading, disease D ([4]; 100 ppm spray and drench): 3 (0 to 5); % Kill of slugs [23]: 50%
O=[N+]([O-])c1cc([N+](=O)[O-])c(Nc2c(Cl)c(Cl)nc(Cl)c2Cl)cc1F [Compound 35, 4(5-Fluoro-2,4-dinitroanilino)tetrachloropyridine]	0 (61 to 100)	0 (61 to 100)	0 (61 to 100)	0 (61 to 100)	1 (26 to 60)	2 (6 to 25)	2 (6 to 25)											2 (6 to 25)	3 (0 to 5)	0 (61 to 100)	Amount of disease grading, disease B (Table 4) ([2]; 100 ppm spray and drench): 3 (0 to 5); Amount of disease grading, disease E (Table 4) [5]: 2 (6 to 25)
O=[N+]([O-])c1cc(Br)c(Nc2c(Cl)c(F)nc(F)c2Cl)c([N+](=O)[O-])c1 [Compound 40, 4(2-Bromo-4,6-dinitroanilino)-3,5-dichloro-2,6-difluoropyridine]	2 (6 to 25)	2 (6 to 25)	3 (0 to 5)	1 (26 to 60)	2 (6 to 25)	1 (26 to 60)	2 (6 to 25)	3 (3 represents over 90% kill)	3 (3 represents over 90% kill)	3 (3 represents over 90% kill)	3 (3 represents over 90% kill)	3 (3 represents over 90% kill)	0 (O represents less than 30% kill)	3 (3 represents over 90% kill)	0 (O represents less than 30% kill)	0 (key: O represents less than 30% kill; 1 represents 30 - 49% kill; 2 represents 60 - 90% kill; 3 represents over 90% kill; C indicates a chemosterilant effect.; A indicates an antifeeding effect.)	2 (key: O represents less than 30% kill; 1 represents 30 - 49% kill; 2 represents 60 - 90% kill; 3 represents over 90% kill; C indicates a chemosterilant effect.; A indicates an antifeeding effect.)	0 (61 to 100)	3 (0 to 5)	3 (0 to 5)	Amount of disease grading, disease E (Table 4) [5]: 1 (26 to 60); Damage to plants, post-emergence [24]: 3; Damage to plants, pre-emergence [24]: 3; Damage to plants, post-emergence [25]: 1; Damage to plants, pre-emergence [25]: 3; Damage to plants, post-emergence [26]: 0; Damage to plants, pre-emergence [26]: 1; Damage to plants, post-emergence [27]: 0; Damage to plants, pre-emergence [27]: 1
O=[N+]([O-])c1ccc(Nc2c(Cl)c(F)nc(Cl)c2Cl)c(C(F)(F)F)c1 [Compound 44, 2-Fluoro-(4-nitro-2-trifluoromethylanilino)3,5,6-trichlorpyridine]	3 (0 to 5)	3 (0 to 5)	3 (0 to 5)	3 (0 to 5)	3 (0 to 5)	3 (0 to 5)	3 (0 to 5)	3 (3 represents over 90% kill)	3 (3 represents over 90% kill)	0 (O represents less than 30% kill)	0 (O represents less than 30% kill)	3 (3 represents over 90% kill)	0 (O represents less than 30% kill)	3 (3 represents over 90% kill)	3 (3 represents over 90% kill)	0 (key: O represents less than 30% kill; 1 represents 30 - 49% kill; 2 represents 60 - 90% kill; 3 represents over 90% kill; C indicates a chemosterilant effect.; A indicates an antifeeding effect.)	0 (key: O represents less than 30% kill; 1 represents 30 - 49% kill; 2 represents 60 - 90% kill; 3 represents over 90% kill; C indicates a chemosterilant effect.; A indicates an antifeeding effect.)	2 (6 to 25)	3 (0 to 5)	3 (0 to 5)	Amount of disease grading, disease E (Table 4) [5]: 0 (61 to 100); Damage to plants, post-emergence [24]: 3; Damage to plants, pre-emergence [24]: 2; Damage to plants, post-emergence [25]: 3; Damage to plants, pre-emergence [25]: 3; Damage to plants, post-emergence [26]: 0; Damage to plants, pre-emergence [26]: 3; Damage to plants, post-emergence [27]: 1; Damage to plants, pre-emergence [27]: 0
